Results from ChEMBL document CHEMBL2216752, “Carnitine palmitoyltransferase (CPT) modulators: a medicinal chemistry perspective on 35 years of research” (J Med Chem, 2011).

Experiments:
[1] = molecular target: T1, Carnitine O-palmitoyltransferase 2, mitochondrial (Rattus norvegicus, UniProt P18886); experiment: Inhibition of rat CPT2
T1 sequence (P18886 whole entry): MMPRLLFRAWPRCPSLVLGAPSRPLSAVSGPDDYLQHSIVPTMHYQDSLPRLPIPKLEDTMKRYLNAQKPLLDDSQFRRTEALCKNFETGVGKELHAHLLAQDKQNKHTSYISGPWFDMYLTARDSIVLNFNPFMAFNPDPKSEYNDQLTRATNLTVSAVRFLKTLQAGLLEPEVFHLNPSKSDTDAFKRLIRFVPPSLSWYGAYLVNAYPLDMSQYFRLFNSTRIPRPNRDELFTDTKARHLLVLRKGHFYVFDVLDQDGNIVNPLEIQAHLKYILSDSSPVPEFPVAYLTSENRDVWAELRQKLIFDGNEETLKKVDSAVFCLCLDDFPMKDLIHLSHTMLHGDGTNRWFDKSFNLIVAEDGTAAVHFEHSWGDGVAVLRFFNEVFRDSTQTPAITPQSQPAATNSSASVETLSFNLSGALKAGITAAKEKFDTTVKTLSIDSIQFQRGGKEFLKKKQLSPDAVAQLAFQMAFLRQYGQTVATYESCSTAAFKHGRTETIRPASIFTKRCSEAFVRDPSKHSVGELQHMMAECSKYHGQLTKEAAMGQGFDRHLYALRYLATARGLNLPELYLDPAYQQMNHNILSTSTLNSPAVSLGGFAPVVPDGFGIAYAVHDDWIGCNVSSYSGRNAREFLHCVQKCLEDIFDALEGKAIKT

[2] = molecular target: T2, Carnitine O-palmitoyltransferase 1, liver isoform (Homo sapiens, UniProt P50416); experiment: Inhibition of human CPT1A
T2 sequence (P50416 whole entry): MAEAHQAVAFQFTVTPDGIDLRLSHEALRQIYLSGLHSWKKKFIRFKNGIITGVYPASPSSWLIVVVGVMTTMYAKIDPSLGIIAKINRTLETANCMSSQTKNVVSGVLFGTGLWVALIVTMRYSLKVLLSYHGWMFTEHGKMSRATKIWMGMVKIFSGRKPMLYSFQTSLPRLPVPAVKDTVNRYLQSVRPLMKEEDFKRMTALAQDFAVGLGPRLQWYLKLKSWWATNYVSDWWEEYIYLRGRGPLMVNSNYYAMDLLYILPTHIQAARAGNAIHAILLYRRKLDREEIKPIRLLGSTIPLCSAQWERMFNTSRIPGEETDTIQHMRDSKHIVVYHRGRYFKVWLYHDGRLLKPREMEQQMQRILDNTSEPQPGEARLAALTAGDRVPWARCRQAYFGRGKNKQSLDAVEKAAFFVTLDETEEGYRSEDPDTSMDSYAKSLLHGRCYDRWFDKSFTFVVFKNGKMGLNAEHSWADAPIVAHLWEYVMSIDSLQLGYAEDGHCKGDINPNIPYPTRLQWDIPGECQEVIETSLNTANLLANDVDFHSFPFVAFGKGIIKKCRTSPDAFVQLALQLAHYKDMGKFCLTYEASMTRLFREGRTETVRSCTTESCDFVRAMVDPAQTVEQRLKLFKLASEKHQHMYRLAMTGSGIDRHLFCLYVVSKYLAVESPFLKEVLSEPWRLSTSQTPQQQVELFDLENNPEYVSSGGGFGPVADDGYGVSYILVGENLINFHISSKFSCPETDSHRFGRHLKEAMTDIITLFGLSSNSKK

[3] = molecular target: T3, Carnitine O-palmitoyltransferase 1, muscle isoform (Homo sapiens, UniProt Q92523); experiment: Inhibition of human CPT1B
T3 sequence (Q92523 whole entry): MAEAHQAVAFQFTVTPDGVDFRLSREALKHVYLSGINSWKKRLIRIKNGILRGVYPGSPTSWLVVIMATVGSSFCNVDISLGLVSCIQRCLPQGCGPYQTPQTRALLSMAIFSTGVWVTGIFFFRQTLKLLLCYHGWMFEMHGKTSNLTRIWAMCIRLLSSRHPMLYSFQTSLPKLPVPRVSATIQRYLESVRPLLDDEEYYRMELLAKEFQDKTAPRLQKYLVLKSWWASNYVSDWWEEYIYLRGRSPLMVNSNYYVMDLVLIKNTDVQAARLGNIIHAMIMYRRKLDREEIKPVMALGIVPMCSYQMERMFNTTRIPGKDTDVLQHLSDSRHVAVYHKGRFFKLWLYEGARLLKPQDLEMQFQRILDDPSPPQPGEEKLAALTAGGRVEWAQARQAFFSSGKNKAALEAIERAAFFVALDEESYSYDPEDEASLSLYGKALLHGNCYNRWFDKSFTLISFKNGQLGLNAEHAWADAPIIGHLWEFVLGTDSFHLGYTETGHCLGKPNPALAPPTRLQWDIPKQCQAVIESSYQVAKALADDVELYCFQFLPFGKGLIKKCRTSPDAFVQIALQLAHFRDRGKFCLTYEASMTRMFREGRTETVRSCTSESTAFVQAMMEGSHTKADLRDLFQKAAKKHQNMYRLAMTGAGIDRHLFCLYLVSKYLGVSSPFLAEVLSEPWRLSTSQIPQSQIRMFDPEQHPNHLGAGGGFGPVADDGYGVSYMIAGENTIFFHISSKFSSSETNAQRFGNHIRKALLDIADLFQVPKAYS

[4] = molecular target: T1, Carnitine O-palmitoyltransferase 2, mitochondrial; experiment: Inhibition of rat CPT2 using [3H]carnitine by radiometric assay
[5] = molecular target: T4, Carnitine O-palmitoyltransferase 1, liver isoform (Rattus norvegicus, UniProt P32198); experiment: Inhibition of rat CPT1A using [3H]carnitine by radiometric assay
T4 sequence (P32198 whole entry): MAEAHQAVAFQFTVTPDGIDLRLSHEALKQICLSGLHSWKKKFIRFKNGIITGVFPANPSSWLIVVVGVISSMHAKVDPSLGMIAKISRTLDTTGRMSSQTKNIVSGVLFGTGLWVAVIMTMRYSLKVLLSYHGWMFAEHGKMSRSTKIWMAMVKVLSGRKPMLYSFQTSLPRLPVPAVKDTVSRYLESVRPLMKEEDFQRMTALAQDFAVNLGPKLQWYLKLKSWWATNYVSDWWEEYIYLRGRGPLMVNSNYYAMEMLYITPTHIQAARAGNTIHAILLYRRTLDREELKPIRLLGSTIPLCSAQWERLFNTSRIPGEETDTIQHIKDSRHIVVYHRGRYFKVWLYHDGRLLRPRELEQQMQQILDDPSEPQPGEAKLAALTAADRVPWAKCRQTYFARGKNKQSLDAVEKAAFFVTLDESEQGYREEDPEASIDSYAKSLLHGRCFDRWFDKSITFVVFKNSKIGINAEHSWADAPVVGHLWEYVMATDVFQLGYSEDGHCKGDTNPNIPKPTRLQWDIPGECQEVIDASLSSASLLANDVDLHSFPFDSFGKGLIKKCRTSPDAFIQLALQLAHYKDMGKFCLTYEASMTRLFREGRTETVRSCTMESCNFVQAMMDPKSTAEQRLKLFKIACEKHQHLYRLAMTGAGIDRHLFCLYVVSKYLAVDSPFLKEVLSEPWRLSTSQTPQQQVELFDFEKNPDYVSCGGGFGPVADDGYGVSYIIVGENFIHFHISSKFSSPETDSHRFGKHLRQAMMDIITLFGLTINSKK

[6] = molecular target: T5, Carnitine O-palmitoyltransferase 2, mitochondrial (Homo sapiens, UniProt P23786); experiment: Inhibition of human CPT2
T5 sequence (P23786 whole entry): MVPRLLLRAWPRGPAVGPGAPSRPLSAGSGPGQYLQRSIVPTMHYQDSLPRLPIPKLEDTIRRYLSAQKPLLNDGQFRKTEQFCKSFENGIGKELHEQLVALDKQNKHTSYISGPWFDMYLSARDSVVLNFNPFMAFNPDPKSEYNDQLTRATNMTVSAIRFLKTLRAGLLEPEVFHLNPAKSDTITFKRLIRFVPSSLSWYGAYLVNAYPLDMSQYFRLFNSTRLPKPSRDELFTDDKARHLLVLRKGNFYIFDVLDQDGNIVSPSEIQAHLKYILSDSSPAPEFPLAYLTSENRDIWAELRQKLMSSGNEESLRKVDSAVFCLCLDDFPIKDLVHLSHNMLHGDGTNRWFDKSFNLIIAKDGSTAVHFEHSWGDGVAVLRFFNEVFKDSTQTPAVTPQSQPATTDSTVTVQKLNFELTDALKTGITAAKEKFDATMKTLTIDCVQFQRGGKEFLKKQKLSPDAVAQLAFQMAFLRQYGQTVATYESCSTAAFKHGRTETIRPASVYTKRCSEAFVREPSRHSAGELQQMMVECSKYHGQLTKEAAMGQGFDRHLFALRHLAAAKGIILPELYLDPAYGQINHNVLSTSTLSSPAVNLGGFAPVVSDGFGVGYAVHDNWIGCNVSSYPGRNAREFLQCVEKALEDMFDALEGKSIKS

[7] = Inhibition of human FAO
[8] = Inhibition of rat FAO
[9] = molecular target: T2, Carnitine O-palmitoyltransferase 1, liver isoform; experiment: Inhibition of human CPT1A expressed in Saccharomyces cerevisiae mitochondria assessed as palmitoylcarnitine by HPLC method
[10] = Inhibition of carnitine palmitoyltransferase in rat liver mitochondria assessed as conversion of [14C]palmitic acid to [14C]palmitoylcarnitine by radiometric assay
[11] = Inhibition of carnitine palmitoyltransferase in rat heart mitochondria assessed as conversion of [14C]palmitic acid to [14C]palmitoylcarnitine by radiometric assay
Mus musculus = experiment: Reduction in glucose level in db/db mouse at 30 mg/kgl/day, po for 12 days; type: functional; design: scale not given: the % may be the effect or the level left; settings: dose 30 mg/kg
[12] = Critical micelle concentration of compound; type: physicochemical
[13] = molecular target: T2, Carnitine O-palmitoyltransferase 1, liver isoform; experiment: Inhibition of CPT1A
[14] = molecular target: T3, Carnitine O-palmitoyltransferase 1, muscle isoform; experiment: Inhibition of CPT1B
[15] = Toxicity in po dosed Sprague-Dawley rat assessed as hypoglycemic coma; type: organism-based; settings: in vivo
Rattus norvegicus [16] = experiment: Reduction in blood glucose in po dosed Sprague-Dawley rat; type: functional
Rattus norvegicus [17] = experiment: Reduction in blood glucose in Sprague-Dawley rat at 600 umol/kg, po; type: functional; design: scale not given: the % may be the effect or the level left

SMILES: O=C(NCc1cccs1)c1nn(Cc2cccc(C(F)(F)F)c2)c2ccccc12
- IC50 [1]: > 100 µM
- IC50 [2]: 0.026 µM
- IC50 [3]: > 100 µM

SMILES: CCCCCCCCCCCCCCCC1(O)C[N+](C)(C)CC(CC(=O)[O-])O1 (stereo in doubt; (+)-27)
- IC50 [4]: 47.5 µM
- IC50 [5]: 38.5 µM

SMILES: COc1ccc(C)cc1S(=O)(=O)N1CCCc2ccc(C(=O)Nc3ccc(CC(=O)O)cc3)cc21
- IC50 [1]: 16.7 µM
- IC50 [2]: 0.16 µM
- IC50 [3]: 3.5 µM
- IC50 [6]: 2.8 µM

SMILES: N[C@H](C(=O)O)c1ccc(O)cc1 [OXFENICINE]
- IC50 [7]: > 100 µM
- IC50 [2]: > 100 µM
- IC50 [3]: > 100 µM
- IC50 [6]: > 100 µM
- IC50 [8]: > 100 µM

SMILES: CCCCCc1ccc(S(=O)(=O)NC2(CC(=O)[O-])CC[N+](C)(C)CC2)cc1
- IC50 [9]: < 1 µM

SMILES: CCCCCCCCCCCNS(=O)(=O)N[C@H](CC(=O)[O-])C[N+](C)(C)C
- IC50 [10]: 0.8 µM
- IC50 [11]: 5.8 µM

SMILES: COc1ccc(Cl)cc1S(=O)(=O)N1CCc2ccc(C(=O)Nc3ccc(C(=O)O)cc3)cc21
- IC50 [1]: 3.2 µM
- IC50 [2]: 0.021 µM
- IC50 [3]: > 100 µM
- IC50 [6]: 0.74 µM

SMILES: CCCCCCOc1cccc(OCCCCNC(=O)N[C@H](CC(=O)[O-])C[P+](C)(C)C)c1
- IC50 [10]: 0.12 µM
- Activity (Mus musculus): 30%
- CMC [12]: 0.55 mM
- IC50 [11]: 57.3 µM

SMILES: COc1ccc(-c2noc([C@H]3CCCCN3C(=O)COc3ccccc3)n2)cc1
- IC50 [1]: > 100 µM
- IC50 [2]: 0.065 µM
- IC50 [3]: > 100 µM

SMILES: CCCCCCCC[C@H]1OC(=O)C(CSCCNC(=O)CCNC(=O)[C@H](O)C(C)(C)COP(=O)(O)OP(=O)(O)OC[C@H]2O[C@@H](n3cnc4c(N)ncnc43)[C@H](O)[C@@H]2OP(=O)(O)O)[C@@H]1C(=O)O (stereo partly drawn)
- IC50 [13]: 0.24 µM
- IC50 [14]: 0.36 µM

SMILES: CCOC(=O)C1(CCCCCc2ccc(Cl)cc2)CO1 (racemic)
- LD50 [15]: 275 mg/kg
- ED50 (Rattus norvegicus [16]): 6 mg/kg
- Activity (Rattus norvegicus [17]): 80%
